Test results from US6013647A, “Benzoxazinedione derivatives, method of producing them and uses thereof” (Gruenenthal GmbH, priority 1997, dated 2000).
Where a SMILES comes first, the peptide text is derived from it. [ ]: non-standard residue; d: D form. Orn(N5-OH,N5-Ac) = CC(=O)N(O)CCC[C@H](N)C(=O)O

What was measured:
E. coli = settings: literature; cited from earlier work
B. subtilis = settings: literature; cited from earlier work
[1] = e.g. thalassaemia; cited from earlier work
E. coli AB 2847 = experiment: Siderophore efficacy, growth promotion of indicator mutant (DIN 58 940); type: cell-based; settings: test substances 5 μg/test plate
Source text: (§1) The promotion of growth can be ascertained after the addition of the test substances as external siderophores. In the indicator mutants, the synthesis of the respective siderophores, e.g. pyoverdin, pyochelin, enterobactin, aerobactin or yersiniabactin, or the biosynthesis of aromatic compounds, is blocked, or there is a lack of receptors for enterobactin, pyochelin or pyoverdin and for other important components for the bacterial transport of iron (e.g. the membrane proteins Cir, Fiu, FepA and the TonB protein also). Under conditions where there is a lack of iron, these mutants therefore cannot grow or can only grow in a very retarded manner. In particular, the following indicator mutants were used: Pseudomonas aeruginosa PAO 6609, K 407, E. coli AB 2847, Salmonella typhimurium enb-7, TA 2700, and Yersinia enterocolitica WAH 5030. The controls used were ferrioxamine E for the Pseudomonas strains, ferrioxamine G for the Salmonella strains, and ferrichrome for the E. coli strains. The test substances were each employed in an amount of 5 μg/test plate.

[2] = system: Pseudomonas aeruginosa PAO 6609; experiment: as above; type: cell-based; settings: Pseud. aeruginosa PAO 6609; test substances 5 μg/test plate
Source text: as §1

[3] = system: Salmonella typhimurium TA 2700; experiment: as above; type: cell-based; settings: Salmonella TA 2700; test substances 5 μg/test plate
Source text: as §1

[4] = system: Salmonella typhimurium enb-7; experiment: as above; type: cell-based; settings: Salmonella enb-7; test substances 5 μg/test plate
Source text: as §1

[5] = system: Yersinia enterocolitica WAH 5030; experiment: as above; type: cell-based; settings: Y. enterocol. WAH 5030; test substances 5 μg/test plate
Source text: as §1

Molecule | Growth areas (diameter) of siderophore indicator strain (E. coli AB 2847) [mm] | Growth areas (diameter) of siderophore indicator strain [2] [mm] | Growth areas (diameter) of siderophore indicator strain [3] [mm] | Growth areas (diameter) of siderophore indicator strain [4] [mm] | also measured
O=C(N[C@@H](CO)C(=O)O)c1cccc(O)c1O [N-(2,3-dihydroxybenzoyl)-L-serine] |  |  |  |  | siderophore activity (E. coli): effective as a siderophore
O=C(O)CNC(=O)c1cccc(O)c1O [N-(2,3-dihydroxybenzoyl)glycine] |  |  |  |  | siderophore activity (B. subtilis): siderophore for B. subtilis
CC(=O)N(O)CCCCCNC(=O)CCC(=O)N(O)CCCCCNC(=O)CCC(=O)N(O)CCCCCN [desferrioxamine B] |  |  |  |  | use in diseases caused by an excess of iron [1]: successfully used in diseases which are caused by an excess of iron
O=C(N[C@H]1COC(=O)[C@@H](NC(=O)c2cccc(O)c2O)COC(=O)[C@@H](NC(=O)c2cccc(O)c2O)COC1=O)c1cccc(O)c1O [enterobactin] |  |  |  |  | siderophore activity (E. coli): siderophore for E. coli
CC(=O)N([O-])CCC[C@@H]1NC(=O)CNC(=O)CNC(=O)CNC(=O)[C@H](CCCN([O-])C(C)=O)NC(=O)[C@H](CCCN([O-])C(C)=O)NC1=O.[Fe+3] [ferrichrome, reference compound] (cyclo(GGG[Orn(N5-OH,N5-Ac)][Orn(N5-OH,N5-Ac)][Orn(N5-OH,N5-Ac)])) | 23 |  |  |  | 
COC(=O)Oc1cccc2c(=O)n(CC(=O)O)c(=O)oc12 [substance 1, (8-methoxycarbonyloxy-2,4-dioxobenzoxazin-3-yl)-acetic acid] | 15 | 0 | 13 | 18 | 
COC(=O)Oc1cccc2c(=O)n(CC(=O)NCC(=O)O)c(=O)oc12 [substance 2, (8-methoxycarbonyloxy-2,4-dioxobenzoxazin-3-yl)-acetyl-glycine] | 10 | 13 | 21 | 22 | 
C[C@H](NC(=O)Cn1c(=O)oc2c(O)cccc2c1=O)C(=O)O [substance 4, (8-hydroxy-2,4-dioxobenzoxazin-3-yl)-acetyl-L-alanine] | 0 | 0 | 0 | 14 | 
COC(=O)Oc1cccc2c(=O)n([C@@H](C)C(=O)O)c(=O)oc12 [substance 7, 2-L-(8-methoxycarbonyloxy-2,4-dioxobenzoxazin-3-yl)-propionic acid] | 0 | 0 | 0 | 10 | 
COC(=O)Oc1cccc2c(=O)n(N=Cc3ccc(C(=O)O)cc3)c(=O)oc12 [substance 9, 4-[(8-methoxycarbonyloxy-2,4-dioxobenzoxazin-3-yl-imino)-methyl]-benzoic acid] | 24 | 0 | 16 | 0 | 
ferrioxamine E [reference compound] |  | 35 |  |  | Growth areas (diameter) of siderophore indicator strain [5]: 40 mm
ferrioxamine G [reference compound] |  |  | 20 | 38 | 
